Results: patent publication US7232904B2, “Crystal of arylethenesulfonamide derivative and preparation process thereof” (Astellas Pharma Inc., priority 2001, dated 2007)

What was measured:
[1] = system: ET receptors, particularly an ETA receptor; conditions: competitively inhibits binding to ET receptors; cited from earlier work
[2] = heat stability of crystals; assay type: physicochemical; conditions: high melting point
[3] = hygroscopicity of crystals (FIGS. 10 to 12); assay type: physicochemical; conditions: for moisture absorbed / moisture absorbed, corresponding moles of water: extent of moisture absorption with increase of humidity; for humidity above which moisture is absorbed: humidity exceeded before moisture absorption
Text: Also, FIGS. 10 to 12 show the hygroscopicity of the three kinds of novel crystals of the potassium salt of Compound A of the invention.

[4] = preservation stability in a reagent bottle; assay type: physicochemical; conditions: normal temperature, atmospheric pressure
Text: Additionally, the α-type crystal, β-type crystal and γ-type crystal of the potassium salt of Compound A of the invention are morphologically pure. […] Moreover, since it is hardly electrified and is excellent in fluidity, it has advantages such that works are easy in adjusting solid formulations such as powders, granules, tablets, and capsules.

[5] = listed as γ-type crystal of the potassium salt of Compound A
[6] = listed as α-type crystal of the potassium salt of Compound A
[7] = listed as β-type crystal of the potassium salt of Compound A

In the case of `COc1ccccc1Oc1c(NS(=O)(=O)/C=C/c2ccccc2)nc(-c2ncccn2)nc1OC.[K]` [potassium salt of Compound A], the “affinity with ET receptors” value [1] is listed as “high affinity”.
For `COc1ccccc1Oc1c(NS(=O)(=O)/C=C/c2ccccc2)nc(-c2ncccn2)nc1OC.[K]` [γ-type crystal], the “heat stability (in words)” value [2] was “excellent in heat stability”, the moisture absorbed [3, 5] was “about 1%” and the “moisture absorbed, corresponding moles of water” value (“moisture absorbed … of water” for short) [3, 5] was 0.3 moles of water.
In the case of `COc1ccccc1Oc1c(NS(=O)(=O)/C=C/c2ccccc2)nc(-c2ncccn2)nc1OC.[K]` [α-type crystal], the “stable in the preservation state” value [4] is reported as “over 2 years”, the moisture absorbed [3, 6] is reported as “about 6%” and the “moisture absorbed … of water” value [3, 6] is reported as 1.8 moles of water. The “humidity above which moisture is absorbed” value [3, 6] was “exceeded 65%”.
With `COc1ccccc1Oc1c(NS(=O)(=O)/C=C/c2ccccc2)nc(-c2ncccn2)nc1OC.[K]` [β-type crystal] the “heat stability (in words)” value [2] was “excellent in heat stability”, the moisture absorbed [3, 7] was “about 4%” and the “moisture absorbed … of water” value [3, 7] was 1.2 moles of water. The “humidity above which moisture is absorbed” value [3, 7] was “exceeded 45%”.
